The text below walks through data of US10092537B2, “Use for PAI-1 inhibitor” (RENASCIENCE CO., LTD., priority 2013, dated 2018).

Assay [1] concerns the target T1, human PAI-1 (Homo sapiens, UniProt P05121). Description: Measurement of PAI-1 inhibitory activity of compound group 3 (t-PA, S-2288 chromogenic substrate; Table 4).
Experimental: Subsequently, tissue plasminogen activator (t-PA) (manufactured by American Diagnostica, Inc. (USA); the same applies hereinafter) adjusted to 0.3 pmol/μL was added thereto, and further incubated at 37° C. for 15 minutes.
The target of assay [2] is T1, human PAI-1. Description: Measurement of PAI-1 inhibitory activity of compound group 2 (t-PA, S-2288 chromogenic substrate). The settings on record: PAI-1 activity of the system without compound after 30 minutes taken as 100%.
Experimental: Subsequently, human-derived tissue plasminogen activator (t-PA) (manufactured by American Diagnostica, Inc. (USA); the same applies hereinafter) adjusted to 0.3 pmol/μL was added thereto, and the mixture was further incubated at 37° C. for 15 minutes.
Assay [3] has as its target T1, human PAI-1. The assay is described as follows: Measurement of PAI-1 inhibitory activity of compound group 1 (t-PA, Spectrozyme t-PA chromogenic substrate). The settings on record: for activity at 2.5 µM / activity at 10 µM: read-out: PAI-1 activity %; for PAI-1 activity %: PAI-1 activity of the system without compound after 120 minutes taken as 100%.
Experimental: Subsequently, human-derived tissue plasminogen activator (t-PA) (manufactured by American Diagnostica, Inc. (USA); the same applies hereinafter) adjusted to 0.05 pmol/μL was added thereto, and the mixture was further incubated at 37° C. for 60 minutes. Then, 0.25 mM of Spectrozyme t-PA synthetic substrate (manufactured by American Diagnostica, Inc. (USA); the same applies hereinafter), which is a chromogenic substrate, was added. The final mixture contained 50 mM Tris-HCl (pH 8), 150 mM NaCl, 1% DMSO, 0.1% PEG-6000, 0.2 mM CHAPS, 5 nM PAI-1, 2 nM t-PA, 0.2 mM Spectrozyme t-PA synthetic substrate, and each compound (10 μM or 2.5 μM).
Free radical p-nitroaniline removed from the chromogenic substrate (Spectrozyme t-PA) by t-PA action was measured using a spectrophotometer at an absorbance of 405 nm at 20-minute intervals, for 120 minutes.
In assay [4] the target is T1, human PAI-1. The assay is described as follows: Measurement of PAI-1 inhibitory activity of compound group 1 (t-PA, S-2288 chromogenic substrate). The conditions noted are these: read-out: PAI-1 activity %.
Experimental: Subsequently, human-derived tissue plasminogen activator (t-PA) (manufactured by American Diagnostica, Inc. (USA); the same applies hereinafter) adjusted to 0.35 pmol/μL was added thereto, and the mixture was further incubated at 37° C. for 15 minutes.
Assay [5] has as its system hematopoietic stem cells. The assay is described as follows: Hematopoietic recovery after bone-marrow transplantation, compounds a, b, c (Experimental Example 5). Type of assay: in vivo, mice. The conditions noted are these: compound a 100 mg/kg oral 4 days; compounds b and c 10 mg/kg oral 6 consecutive days after bone-marrow transplantation. The method, then:
The procedures of Experimental Examples 4 (1) and 4 (4) were repeated using compounds b and c, instead of compound a, as a test compound.
Compound a was orally administered in an amount of 100 mg/kg for 4 consecutive days after bone-marrow transplantation. Compounds b and c were orally administered in an amount of 10 mg/kg for 6 consecutive days after bone-marrow transplantation.
Bone marrow was collected 1 and 3 weeks after bone-marrow transplantation. The total number of the whole bone-marrow cells (FIG. 9E), the proportion (%) of LSK-CD34 negative cells in the whole bone marrow (FIG. 9A), the total number of LSK-CD34 negative cells in the whole bone marrow (FIG. 9B), the proportion (%) of Lin-SLAM cells in the whole bone marrow (FIG. 9C), and the total number of Lin-SLAM cells in the whole bone marrow (FIG. 9D) were measured. The results are shown in the above-stated figures.

Assay [6] deals with hematopoietic stem cells. The assay is described as follows: Bone-marrow transplanted mice, compound c, G-CSF and G-CSF neutralizing antibody (Experimental Example 13). Type of assay: in vivo. The conditions noted are these: G-CSF 150 μg/kg/day. How it is done:
Bone-marrow transplanted mice were prepared in the same manner as in Experimental Example 4, and compound c, G-CSF, and G-CSF neutralizing antibody were examined for the effects. Specifically, the bone-marrow transplanted mice were divided into 5 groups as shown below (each group: n=5) and orally administered respective test drugs.
Group 1: vehicle group (physiological saline was administered via gavage) (“v group”)
Group 2: compound c group (compound c [10 mg/kg/day] was administered via gavage) (“TM group”)
Group 3: G-CSF group (G-CSF [150 μg/kg/day] was administered via gavage) (“G group”)
Group 4: vehicle+anti-G-CSF group (physiological saline+G-CSF neutralizing antibody [500 μg/kg/day] was administered via gavage) (“v+Ab group”)
Group 5: compound c+anti-G-CSF group (compound c [500 μg/kg/day]+G-CSF neutralizing antibody [500 μg/kg/day] was administered via gavage) (“TM+Ab group”)
Concurrently with bone-marrow transplantation, administration of physiological saline (vehicle) to the vehicle group via gavage was started, and the administration continued for 5 consecutive days. Concurrently with bone-marrow transplantation, administration of compound c (10 mg/kg/day) to the compound c group via gavage was started, and the administration continued for 5 consecutive days. Concurrently with bone-marrow transplantation, subcutaneous administration of G-CSF (150 μg/kg/day) to the G-CSF group was started, and the administration continued for 5 consecutive days. Concurrently with bone-marrow transplantation, gavage administration of physiological saline and subcutaneous administration of G-CSF neutralizing antibody (R&D) (500 μg/kg/day) to the vehicle+anti-G-CSF group were started, and the administration continued for 5 consecutive days. Concurrently with bone-marrow transplantation, gavage administration of compound c (10 mg/kg/day) and intraperitoneal administration of G-CSF neutralizing antibody (R&D) (500 μg/kg/day) to the compound c+anti-G-CSF group were started, and the administration continued for 5 consecutive days.
1 week after bone-marrow transplantation, plasma and bone-marrow fluids were collected from mice of each group (v group, TM group, G group, v+Ab group, and TM+Ab group), and the G-CSF concentration (pg/ml) was measured by ELISA. The following were determined in accordance with an ordinary procedure: (B) G-CSF concentration (pg/ml) in bone-marrow fluids, (C) total number of mononucleic cells (×10E7 cell) in the bone marrow, (D) proportion (%) of LSK CD34 negative cells in the bone marrow, (E) total number of LSK CD34 negative cells in the bone marrow, (F) proportion (%) of Lin-SLAM cells in the bone marrow, and (G) total number of Lin-SLAM cells in the bone marrow.

T1 sequence (P05121 24-402): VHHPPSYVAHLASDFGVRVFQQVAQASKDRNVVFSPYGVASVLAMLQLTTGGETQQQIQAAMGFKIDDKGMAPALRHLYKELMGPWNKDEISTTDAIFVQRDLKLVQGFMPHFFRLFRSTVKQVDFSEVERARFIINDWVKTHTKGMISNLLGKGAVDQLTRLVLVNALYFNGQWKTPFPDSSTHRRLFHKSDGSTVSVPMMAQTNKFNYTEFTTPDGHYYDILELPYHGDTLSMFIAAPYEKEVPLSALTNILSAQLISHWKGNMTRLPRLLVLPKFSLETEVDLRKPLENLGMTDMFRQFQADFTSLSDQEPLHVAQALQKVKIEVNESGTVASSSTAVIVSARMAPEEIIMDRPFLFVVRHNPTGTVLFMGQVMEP

With “5-chloro-2-({[4-(diphenylmethyl)piperazin-1-yl]carbonyl}amino)benzoic acid hydrochloride [Example 75]”, the PAI-1 activity % on human PAI-1 [1] (compound concentration 20 μM) turned out to be 46.1%; at human PAI-1 [2] (compound 20 μM) it was 91.3%; on human PAI-1 [2] (compound 50 μM), 13.3%.
Regarding `O=C(Nc1ccc(Cl)cc1C(=O)[O-])c1cccc(-c2ccncc2)c1.[Na+]` [Example 8, sodium 5-chloro-2-({[3-(pyridin-4-yl)phenyl]carbonyl}amino)benzoate], on human PAI-1 [3], the activity at 2.5 µM worked out at 100%. For the same molecule, at human PAI-1 [3], the activity at 10 µM was 28.5%. Moreover, the PAI-1 activity % on human PAI-1 [1] (compound concentration 20 μM) stood at 95.6%; at human PAI-1 [1] (compound concentration 50 μM), 12.4%; on human PAI-1 [2] (compound 50 μM), 12.9%; at human PAI-1 [2] (compound 100 μM), 9.3%.
`O=C([O-])c1cc(Cl)ccc1NC(=O)C1CCCN(C(=O)c2cccc(-c3ccoc3)c2)C1.[Na+]` (centres unmarked) [Example 11, sodium 5-chloro-2-{[(1-{[3-(furan-3-yl)phenyl]carbonyl}piperidin-3-yl)carbonyl]amino}benzoate]: the activity at 20 µM at human PAI-1 [4] is 68.2%. Besides, on human PAI-1 [4], the activity at 50 µM was 26.1%. The PAI-1 activity % on human PAI-1 [1] (compound concentration 20 μM) is 64.7%; at human PAI-1 [1] (compound concentration 50 μM) it was 11.5%; at human PAI-1 [2] (compound 50 μM), 99.3%; at human PAI-1 [2] (compound 100 μM), 20.7%.
On to `CC(C(=O)Nc1ccc(Cl)cc1C(=O)O)(c1ccccc1)c1ccccc1` [Example 39], for which the PAI-1 activity % stood at 88.6% at human PAI-1 [3] (compound 2.5 μM); 22.1% on human PAI-1 [3] (compound 10 μM); 64.3% on human PAI-1 [1] (compound concentration 20 μM); 6.9% on human PAI-1 [1] (compound concentration 50 μM); 36.1% on human PAI-1 [2] (compound 100 μM).
For the molecule `O=C(Nc1cccc(-c2ccoc2)c1)C(=O)Nc1ccc(Cl)cc1C(=O)O` [Example 45 (compound group 3), 5-chloro-2-{[{[3-(furan-3-yl)phenyl]amino}(oxo)acetyl]amino}benzoic acid], in the assay on hematopoietic stem cells [5], the “frequency of hematopoietic stem cells” value was “increase” and the “self-renewal capacity of hematopoietic stem cells” value is on record as “enhance”.
With `O=C(COc1cccc(-c2ccccc2)c1)Nc1ccc(-c2ccccc2)cc1C(=O)O` [Example 45], the PAI-1 activity % on human PAI-1 [3] (compound 2.5 μM) was 76.9%; on human PAI-1 [3] (compound 10 μM), 0.9%; at human PAI-1 [1] (compound concentration 20 μM) it was 47.8%; at human PAI-1 [1] (compound concentration 50 μM) it was 8.4%; on human PAI-1 [2] (compound 20 μM) it was 79.6%; on human PAI-1 [2] (compound 50 μM), 7.7%.
As to `O=C(COc1ccc(-c2ccccc2)cc1)Nc1ccc(-c2ccoc2)cc1C(=O)O` [Example 46], the PAI-1 activity % at human PAI-1 [3] (compound 2.5 μM) was 69.9%; on human PAI-1 [3] (compound 10 μM), 0.4%; on human PAI-1 [1] (compound concentration 20 μM), 83.9%; on human PAI-1 [1] (compound concentration 50 μM), 47.3%; at human PAI-1 [2] (compound 20 μM) it was 85.4%; at human PAI-1 [2] (compound 50 μM), 8.4%.
With `O=C(Nc1ccc(Cl)cc1C(=O)[O-])c1cccc(-c2cnc3ccccc3c2)c1.[Na+]` [Example 63, sodium 5-chloro-2-({[3-(quinolin-3-yl)phenyl]carbonyl}amino)benzoate], at human PAI-1 [3], the activity at 2.5 µM is 21.3%. Also, the activity at 10 µM on human PAI-1 [3] came to 0.3%. Besides, the PAI-1 activity % came out at 64.3% on human PAI-1 [1] (compound concentration 20 μM), 10.6% on human PAI-1 [1] (compound concentration 50 μM), 78.2% at human PAI-1 [2] (compound 20 μM) and 21.4% at human PAI-1 [2] (compound 50 μM).
`O=C(Nc1ccc(Cl)cc1C(=O)[O-])c1cccc(-c2cncc3ccccc23)c1.[Na+]` [Example 64, sodium 5-chloro-2-({[3-(isoquinolin-4-yl)phenyl]carbonyl}amino)benzoate]: the activity at 2.5 µM at human PAI-1 [3] is 74.3%. Moreover, the activity at 10 µM at human PAI-1 [3] came to 0.7%. The PAI-1 activity % on human PAI-1 [1] (compound concentration 20 μM) came to 71.6%; on human PAI-1 [1] (compound concentration 50 μM) it was 19.2%; at human PAI-1 [2] (compound 20 μM), 62.7%; at human PAI-1 [2] (compound 50 μM) it was 7.5%.
For the molecule `O=C(Nc1ccc(Cl)cc1C(=O)[O-])c1cccc(-c2ccc3ncccc3c2)c1.[Na+]` [Example 65, sodium 5-chloro-2-({[3-(quinolin-6-yl)phenyl]carbonyl}amino)benzoate], the activity at 2.5 µM on human PAI-1 [3] worked out at 71.7%. The activity at 10 µM on human PAI-1 [3] is 0.4%. For the same molecule, the PAI-1 activity % on human PAI-1 [1] (compound concentration 20 μM) worked out at 86.0%; at human PAI-1 [1] (compound concentration 50 μM) it was 25.4%; on human PAI-1 [2] (compound 20 μM), 76.9%; at human PAI-1 [2] (compound 50 μM), 10.8%.
`O=C(Nc1ccc(Cl)cc1C(=O)[O-])c1cccc(-c2cccc3cnccc23)c1.[Na+]` [Example 66, sodium 5-chloro-2-({[3-(isoquinolin-5-yl)phenyl]carbonyl}amino)benzoate]: the activity at 2.5 µM at human PAI-1 [3] stood at 22.6%. Also, the activity at 10 µM at human PAI-1 [3] came out at 0.1%. For the same molecule, the PAI-1 activity % is 59.2% on human PAI-1 [1] (compound concentration 20 μM), 17.7% at human PAI-1 [1] (compound concentration 50 μM), 97.7% on human PAI-1 [2] (compound 20 μM) and 13.1% at human PAI-1 [2] (compound 50 μM).
Take `O=C(Nc1ccc(Cl)cc1C(=O)[O-])c1ccc(-c2cccc3cccnc23)cc1.[Na+]` [Example 67, sodium 5-chloro-2-({[4-(quinolin-8-yl)phenyl]carbonyl}amino)benzoate]: at human PAI-1 [3], the activity at 2.5 µM was determined as 90.4%. In addition, the activity at 10 µM at human PAI-1 [3] was 0.6%. Also, the PAI-1 activity % on human PAI-1 [1] (compound concentration 20 μM) is recorded as 57.6%; at human PAI-1 [1] (compound concentration 50 μM), 8.1%; at human PAI-1 [2] (compound 20 μM), 99.8%; on human PAI-1 [2] (compound 50 μM), 75.0%.
With `O=C(Nc1ccc(Cl)cc1C(=O)[O-])c1cccc(-c2cccc3cccnc23)c1.[Na+]` [Example 68, sodium 5-chloro-2-({[3-(quinolin-8-yl)phenyl]carbonyl}amino)benzoate], the activity at 2.5 µM at human PAI-1 [3] was 2.4%. The activity at 10 µM on human PAI-1 [3] turned out to be 2.1%. Moreover, the PAI-1 activity % on human PAI-1 [1] (compound concentration 20 μM) stood at 20.7%; at human PAI-1 [1] (compound concentration 50 μM) it was 9.4%; at human PAI-1 [2] (compound 20 μM), 99.8%; on human PAI-1 [2] (compound 50 μM), 66.3%.

B1: G-CSF: granulocyte colony stimulating factor, administered 150 μg/kg/day (protein, UniProt P09919 31-207, looked up)
Granulocyte …: TPLGPASSLPQSFLLKCLEQVRKIQGDGAALQEKLVSECATYKLCHPEELVLLGHSLGIPWAPLSSCPSQALQLAGCLSQLHSGLFLYQGLLQALEGISPELGPTLDTLQLDVADFATTIWQQMEELGMAPALQPTQGAMPAFASAFQRRAGGVLVASHLQSFLEVSYRVLRHLAQP
For B1, in the assay with hematopoietic stem cells [6] (single agents: TM (compound c) 10 mg/kg/day, G-CSF neutralizing antibody 500 μg/kg/day with vehicle, versus vehicle group), the “proportion and number of Lin-SLAM cells” value was “increased”. Moreover, the “G-CSF concentration in the plasma and bone-marrow fluids” value with hematopoietic stem cells [6] (single agents: compound c 10 mg/kg/day gavage, G-CSF neutralizing antibody 500 μg/kg/day with vehicle, 1 week after transplantation, versus vehicle) is on record as “significant increases”. The “proportion and number of LSK CD34 negative cells” value in the assay on hematopoietic stem cells [6] (single agents: compound c 10 mg/kg/day, G-CSF neutralizing antibody 500 μg/kg/day with vehicle, versus vehicle group) is listed as “increased”. In addition, in the assay with hematopoietic stem cells [6] (single agents: compound c 10 mg/kg/day, versus vehicle group), the “number of BM MNC” value is given as “more increased”.
